In patent US5580854A, “Substrate-related peptidyl-aldehyde inhibitors of the proteolytic activity of the multicatalytic proteinase complex” (Mount Sinai School of Medicine of The City University of …, priority 1994, dated 1996):
Read-outs that look alike come from different tables or passages of the source. Values belong to the compound of their own block, whether it stands above or below them. Peptide text beside a SMILES is read from it. * marks the point of attachment. Cbz = O=C(OCc1ccccc1)*

Assays:
[1] = biological target: T1, PGPH component of the multicatalytic proteinase complex (MPC) (Bos taurus, UniProt Q3MHN0); settings: cited from earlier work; for increase of the PGPH activity: low concentrations of SDS (0.02%) or fatty acids, depending on the substrate concentration
T1 construct: The MPC was isolated from frozen bovine pituitaries; tissue PelFreeze, Inc. (Rogers, Ark.) (supplier of the tissue; the enzyme was purified in house); host or cells: bovine pituitaries

[2] = biological target: T2, ChT-L component of the multicatalytic proteinase complex (MPC) (Bos taurus, UniProt Q32KL2); assay: ChT-L activity of the MPC with Cbz-Gly-Gly-Leu-pNA; Ki by Dixon plots; format: biochemical, bovine; settings: for Ki: substrate Cbz-Gly-Gly-Leu-pNA (0.1 to 0.4 MM), mean of 3 to 6 experiments ± SEM
T2 construct: The MPC was isolated from frozen bovine pituitaries; tissue PelFreeze, Inc. (Rogers, Ark.) (supplier of the tissue; the enzyme was purified in house); host or cells: bovine pituitaries
Text: (§1) The MPC was isolated from frozen bovine pituitaries, obtained from PelFreeze, Inc. (Rogers, Ark.) essentially as described in Orlowski & Michaud, Biochemistry 28:9270-9277 (1989), incorporated herein by reference.
(§2) The substrates Cbz-Gly-Gly-Leu-pNA, Cbz-D-Ala-Leu-Arg-2NA and Cbz-Leu-Leu-Glu-2NA were used to determine the activities of the ChT-L, T-L and PGPH components of the MPC, respectively, as previously described by Wilk and Orlowski, J. Neurochem. 35:1172-1182 (1980) and J. Neurochem 40:842-849 (1983), where pNA is p-nitroaniline and 2NA is 2-naphthylamide.The rate of release of the chromogenic group (aromatic amine) was measured after diazotization (Goldbarg & Rutenburg, Cancer 11:283-291 (1958) Bratton & Marshall, J. Biol. Chem. 128:537-550 (1939)).
(§3) Reaction mixtures contained 0.4 to 0.8 mM substrate, Tris-HCl buffer (0.05M; pH 8.0) and enzyme (1 to 3 μg) in a final volume of 0.25 ml. Incubations were at 37° C. The reactions were stopped by addition of an equal volume of 10% trichloroacetic acid and diazotization was then carried out.
(§4) Inhibition constant (K1) values for the inhibitors of the present invention towards the various proteolytic activities of the MPC were determined by the method of Dixon, Biochem. J. 55:170-171 (1953). Plots of 1/v vs [I] were made at three (3) different synthetic substrate concentrations and six (6) different inhibitor concentrations [I]. Linear regression analysis gave generally correlation coefficients better than 0.99.
(§5) Inhibition was tested with and without preincubation of the MPC with the inhibitors of the invention. No increase in inhibition was observed after preincubation of the enzyme with the inhibitor for up to 30 min, indicating absence of slow binding phenomena and a rapid equilibration between enzyme and inhibitor.
(§6) Table II provides a summary of the Ki measurements for the various peptidyl aldehydes of the invention synthesized in accordance with Examples 2 and 3.

[3] = biological target: T3, BrAAP component of the multicatalytic proteinase complex (MPC) (Bos taurus, UniProt Q2TBP0+Q32KL2+Q3MHN0); assay: Activity of the BrAAP component of the MPC, coupled two step reaction with aminopeptidase N; Ki by Dixon plots; format: biochemical, bovine
T3 construct: The MPC was isolated from frozen bovine pituitaries; tissue PelFreeze, Inc. (Rogers, Ark.) (supplier of the tissue; the enzyme was purified in house); host or cells: bovine pituitaries
Text: as §1
(§7) Cbz-Gly-Pro-Ala-Leu-Gly-pAB and Cbz-Gly-Pro-Ala-Gly-Gly-pAB, where pAB is p-aminobenzoate, were used as convenient substrates for the determination of the activity of the BrAAP and SNAAP components respectively. The BrAAP component cleaves exclusively the Leu-Gly bond in Cbz-Gly-Pro-Ala-Leu-Gly-pAB, whereas the SNAAP component cleaves the Gly-Gly bond in Cbz-Gly-Pro-Ala-Gly-Gly-pAB.
(§8) A coupled two step reaction in the presence of excess aminopeptidase N (AN) was used for the determination of the BrAAP and SNAAP activities as described previously (Orlowski et al., Biochemistry 32:1563-1572 (1993)). Aminopeptidase N was purified from hog kidneys as described by Pfleiderer, Meth. Enzymol. 19:514-521 (1970) and freed from the contaminating metalloendopeptidase (EC 3.4.24.11) as previously described (Almenoff & Orlowski, Biochemistry 22:590-599 (1983)).
as §4, §5, §6

[4] = biological target: T4, SNAAP component of the multicatalytic proteinase complex (MPC) (Bos taurus, UniProt Q2TBP0+Q32KL2+Q3MHN0); assay: Activity of the SNAAP component of the MPC, coupled two step reaction with aminopeptidase N; Ki by Dixon plots; format: biochemical, bovine; settings: substrate Cbz-Gly-Pro-Ala-Gly-Gly-pAB (1 to 4 mill); mean of 3 to 6 experiments ± SEM
T4 construct: The MPC was isolated from frozen bovine pituitaries; tissue PelFreeze, Inc. (Rogers, Ark.) (supplier of the tissue; the enzyme was purified in house); host or cells: bovine pituitaries
Text: as §1, §7, §8, §4, §5, §6

[5] = biological target: T3, BrAAP component of the multicatalytic proteinase complex (MPC); settings: cited from earlier work
[6] = biological target: T1, PGPH component of the multicatalytic proteinase complex (MPC); assay: PGPH activity of the MPC with Cbz-Leu-Leu-Glu-2NA; IC50; format: biochemical, bovine
Text: as §1, §2, §3
Due to the sigmoidal relationship between reaction rate and substrate concentration for the PGPH activity, only IC50 values (inhibitor concentration giving 50% inhibition) at a substrate concentration of 0.64 mM were determined. […] Some inhibition of the ChT-L activity was also observed, although the Ki for this component was almost 20 times higher than that for the other three activities. […] Indeed, at the concentrations used, each of the inhibitors produced some activation of the T-L activity (data not shown).

[7] = biological target: T5, multicatalytic proteinase complex (MPC) (Bos taurus, UniProt Q2TBP0+Q32KL2+Q3MHN0); assay: Histone H3 degradation by the MPC, HPLC; format: biochemical, bovine; settings: 50 μM inhibitor
T5 construct: The MPC was isolated from frozen bovine pituitaries; tissue PelFreeze, Inc. (Rogers, Ark.) (supplier of the tissue; the enzyme was purified in house); host or cells: bovine pituitaries
Procedure: as §1
(§9) In vitro protein degrading activity of the MPC, and the effects of the various inhibitors of the present invention on such activity, was determined using β-casein and histone H3 as proteolytic substrates. For determining protein degrading activity in the presence and absence of inhibitors, incubation mixtures contained Tris-HCl buffer (0.05M, pH 8.0), β-casein or histone H3, 20 mM Mg^2+ where indicated, and inhibitor dissolved in dimethylsulfoxide, where indicated. In control samples, the inhibitor was replaced by an equal volume of dimethylsulfoxide alone.
(§10) In order to measure proteolysis by the MPC, and its inhibition by the inhibitors of the invention, aliquots of the reaction mixtures were removed after various incubation times and subjected to HPLC on a Deltapak column (C4; 5 μm; 300 A; 3.9×150 mm Waters). Elution of histone H3 was carried out with a linear gradient over 30 min. established between 30 and 50% acetonitrile (v/v) in water containing 0.1% trifluoroacetic acid (v/v) at a flow rate of 1 ml/min. Elution of β-casein was carried with a linear gradient established between 10 and 45% acetonitrile (v/v) in water containing 0.1% trifluoroacetic acid (v/v). The rate of protein degradation was determined by measuring the decrease of the peak height of the protein compared with controls in which the enzyme was omitted. Alternatively degradation of the proteins was determined by integrating the area under the peak of the protein at time zero and determining the decrease of the area after incubation with the enzyme.
Histone H3 used for testing the proteolytic activity of MPC was purified from a crude histone VIII S fraction (obtained from Sigma Chemical Co. St. Louis, Mo.) by HPLC. The material was applied to a Delta Pak C4-300A semipreparative column (15 μm; 7.8 mm×300 mm) equilibrated with 30% acetonitrile (v/v) in water solution, containing 0.1% trifluoroacetic acid (v/v). Elution was carried out at a flow rate of 4 ml/min with a linear, 50 min. gradient established between 30% and 50% acetonitrile (v/v) in water, each containing 0.1% trifluoroacetic acetic acid (v/v). The main protein peak was collected and the solvent was removed under reduced pressure. The protein was dissolved in water at a concentration of 1.85 mg/ml and used for experiments. The purified histone H3 was subjected to HPLC on an analytical Deltapak column (C4; 5 μm; 300 A; 3.9×150 mm; Waters) with a linear gradient established between 30 and 50% acetonitrile (v/v) in water, containing 0.1% trifluoroacetic acid (v/v). […]

[8] = biological target: T5, multicatalytic proteinase complex (MPC); assay: β-casein degradation by the MPC, HPLC; format: biochemical, bovine; settings: for inhibition at 50 µM: 50 μM inhibitor, MPC 5.0 μg
Procedure: as §1, §9, §10
FIG. 1 depicts the inhibition of β-casein degradation by Cbz-Gly-Pro-Ala-Leu-CHO. HPLC analyses were carried out on samples that had been incubated in the absence and presence of the inhibitor. Incubation mixtures contained β-casein (200 μg), 20 mM Mg^2+, MPC (30 μg) and various concentrations of, inhibitor, if used, in 2 μl of Me2 SO. […]

[9] = biological target: T6, BRAAP component of the MPC (Bos taurus, UniProt Q2TBP0+Q32KL2+Q3MHN0); settings: data from Orlowski et al., Biochemistry 32:1563-1572 (1993), cited from earlier work; for Km: [S] 1.6-8.0
T6 construct: The MPC was isolated from frozen bovine pituitaries; tissue PelFreeze, Inc. (Rogers, Ark.) (supplier of the tissue; the enzyme was purified in house); host or cells: bovine pituitaries

[10] = substrate Cbz-Gly-Pro-Ala-Leu-Gly-pAB (1 to 4 mill), mean of 3 to 6 experiments ± SEM, read-out: Ki, BRAAP component
[11] = substrate Cbz-Leu-Leu-Glu-2NA (0.2 to 0.6 mill), inhibitor concentration giving 50% inhibition, read-out: IC50, PGPH component

Compound: CCCCCCCCCCCC(=O)O [lauric acid]
increase of the PGPH activity [1]: ~10 fold

Ki [2]: 16.4 ± 2.7 µM | Ki [3, 10]: 104 ± 2.3 µM | Ki [4]: 36.7 ± 3.6 µM
Compound: CC(C)C[C@@H](C=O)NC(=O)[C@H](C)NC(=O)CNC(=O)[C@@H]1CCCN1C(=O)OCc1ccccc1 [Cbz-Pro-Gly-Ala-Leu-CHO] (Cbz-PGAL-aldehyde)

Compound: CCCCCCCCCCCCOS(=O)(=O)[O-].[Na+] [SDS, sodium dodecyl sulfate]
activation of the BrAAP component ([5]; treatment of the MPC with SDS, synthetic substrates): ~50 fold | increase of the PGPH activity [1]: ~10 fold

Ki for ChT-L activity, times higher than that for the other three activities ([2]; ChT-L vs BrAAP, SNAAP, PGPH): ~20 times | Ki [2]: 40.5 ± 8.8 µM | IC50 ([6]; substrate concentration of 0.64 mM, absence of SDS, read-out: IC50, PGPH activity): 3.1 µM | inhibition at 50 µM ([7]; all histone H3 concentrations, read-out: inhibition of the rate of histone H3 degradation): ~80% | inhibition at 50 µM ([7]; histone H3 185 μg/ml, MPC 2.5 μg, read-out: Inhibition, histone H3 degradation): 77% | inhibition at 50 µM ([7]; histone H3 370 μg/ml, MPC 2.5 μg, read-out: Inhibition, histone H3 degradation): 76% | inhibition at 50 µM ([7]; histone H3 740 μg/ml, MPC 2.5 μg, read-out: Inhibition, histone H3 degradation): 86% | Ki ([3]; MPC exposed to DCI (10 μM), average of three determinations, read-out: Ki, BrAAP activity of the DCI-treated enzyme): 1.67 µM | Ki [3, 10]: 1.5 ± 0.17 µM | Ki [4]: 2.3 ± 0.24 µM | inhibition at 50 µM ([8]; β-casein 160 μg/ml, no Mg2+): 94% | inhibition at 50 µM ([8]; β-casein 1000 μg/ml, 20 mM Mg2+): 89%
Compound: CC(C)C[C@@H](C=O)NC(=O)[C@H](Cc1ccccc1)NC(=O)[C@@H]1CCCN1C(=O)CNC(=O)OCc1ccccc1 [Cbz-Gly-Pro-Phe-Leu-CHO] (Cbz-GPFL-aldehyde)

Ki [2]: 331 ± 22 µM | IC50 [6, 11]: 62 µM | Ki [3, 10]: 47.3 ± 4.9 µM | Ki [4]: 24 ± 0.84 µM
Compound: CC(C)[C@@H](C=O)NC(=O)[C@H](Cc1ccccc1)NC(=O)[C@@H]1CCCN1C(=O)CNC(=O)OCc1ccccc1 [Cbz-Gly-Pro-Phe-Val-CHO] (Cbz-GPFV-aldehyde)

Compound: Cbz-Gly-Pro-Ala-Leu-Gly-p-aminobenzoate [Cbz-Gly-Pro-Ala-Leu-Gly-pAB]
Km [9]: 5.2 mM | kcat [9]: 3.75 s⁻¹ | kcat /Km [9]: 720 M⁻¹ s⁻¹

Compound: O=c1oc(Cl)c(Cl)c2ccccc12 [DCI, 3,4-dichloroisocoumarin]
activation of the BrAAP component ([5]; treatment of the MPC with DCI (10 μM)): 10 fold | inactivation of the PGPH activity ([1]; DCI (10 μM)): almost complete inactivation

Ki [2]: 471 ± 48 µM | IC50 [6, 11]: 60 µM | Ki [3, 10]: 13.9 ± 1.9 µM | Ki [4]: 17.2 ± 3.4 µM | β-casein substrate remaining intact ([8]; 200 μM inhibitor, 30 min incubation, β-casein 200 μg, 20 mM Mg2+, MPC 30 μg): ~90%
Compound: CC(C)C[C@@H](C=O)NC(=O)[C@H](C)NC(=O)[C@@H]1CCCN1C(=O)CNC(=O)OCc1ccccc1 [Cbz-Gly-Pro-Ala-Leu-CHO] (Cbz-GPAL-aldehyde)

Compound: Cbz-Gly-Pro-Ala-Leu-Ala-pAB
Km [9]: 6.7 mM | kcat [9]: 5.2 s⁻¹ | kcat /Km [9]: 780 M⁻¹ s⁻¹

Ki [2]: 1850 ± 750 µM | Ki [3, 10]: 305 ± 77 µM | Ki [4]: 406 ± 54 µM
Compound: C[C@H](NC(=O)[C@@H]1CCCN1C(=O)CNC(=O)OCc1ccccc1)C(=O)N[C@H](C=O)Cc1ccccc1 [Cbz-Gly-Pro-Ala-Phe-CHO] (Cbz-GPAF-aldehyde)
